These results are taken from patent publication US20250082656A1, “DOSAGE REGIMENS FOR TREATMENT OF DENGUE INFECTION” (Atea Pharmaceuticals, Inc., priority 2022, published 2025).

The subject of data set [1] is HIV-1. The data set is described as follows: Antiviral specificity panel, HIV-1. The conditions noted are these: Human immunodeficiency virus 1; RNA virus, CEM-SS. The data set is classed as cell-based.
For data set [2], the system named is Human PBMC. Particulars: Table 1A, human PBMC without virus; highest concentration tested.
Data set [3] concerns DENV-2. Nature of the data set: microbe, parasite or virus in culture. Particulars: Dengue virus, DENV2, Huh-7.
A short description of data set [4]: Cytotoxicity in uninfected Huh-7 cells. The conditions noted are these: human, Huh-7 cells, uninfected.
Data set [5] relates to Huh-7 cells. The data set is described as follows: Cytotoxicity in uninfected Huh-7 cells. The conditions noted are these: Table 1A, Huh-7 incubated without virus, parallel to the virus of the line; highest concentration tested.
The nature of data set [6]: Bone marrow progenitor cell assay, granulocyte macrophage (GM). Particulars: human.
Data set [7] addresses DENV2 NS5 (Dengue virus type 2, UniProt P14340). The data set is described as follows: Nucleotide analogue incorporation / discrimination assay, DENV2 NS5. The data set is classed as biochemical. On the procedure:
The chain-terminating efficiency of Compound 5 was measured in competitive nucleotide incorporation assays using all four DENV serotypes. […] In comparison, sofosbuvir triphosphate is incorporated into the RNA less than 1 time for every 100 UTP (native uridine triphosphate) incorporations.
The experimental procedure is provided in Example 10.
Measurements and quantitations were as in FIG. 19B.
DENV NS5 was preincubated with the annealed P10/T20 RNA in an assembly buffer containing 20 mM HEPES pH 7.5, 10% glycerol, 5 mM MgCl2 and 5 mM DTT for 10 min at 30° C. to create an active RNA elongation complex. Reactions were started by adding AT-9010 with either all four NTPs, or UTP, ATP and CTP only. […] Reactions were quenched at indicated timepoints in 2× volume FBD stop solution (formamide, 10 mM EDTA) and analysed on 20% acrylamide:bisacrylamide (19:1), […] sequencing gels. RNA products were visualized using a Typhoon FluorImager and analyzed using ImageQuant software.
DENV NS5 was pre-incubated with the annealed P10/T20 RNA in an assembly buffer containing 20 mM HEPES pH 7.5, 10% glycerol, 5 mM MgCl2, and 5 mM DTT for 10 min at 30° C. to create an active RNA elongation complex.
Reactions were started by adding AT-9010 with either all four NTPs or UTP, ATP, and CTP only.
Single nucleotide incorporation was tested as follows. Reactions were started by adding the corresponding NTP or analogue. Final concentrations were 1 μM NS5, 0.25 μM P10/T20, 100 μM NTP or analogue in a final buffer containing 20 mM HEPES pH 7.5, 15% glycerol, 5 mM MgCl2, and 5 mM DTT.
Reactions were quenched at the designated time points in 3× volume FBD stop solution (formamide, 10 mM EDTA) and analyzed on 20% acrylamide-bisacrylamide (19:1) […] sequencing gels. RNA products were visualized using a Typhoon FluorImager then analyzed and quantified using ImageQuant software.

The nature of data set [8]: In vivo formation of AT-9010 in PBMCs, monkeys. The conditions noted are these: single oral Compound 2 equivalent to 55 mg/kg Compound 1, 12 h. Also on record: species or system cynomolgus monkeys. On the procedure:
Monkeys were given an oral dose of Compound 2 (AT-752) equivalent to Compound 1 (AT-281) at 55 mg/kg and blood collected at 12, 24 and 48 h. […] Mouse PBMCs were pooled from 3 animals per time point; Rat and monkey data expressed as mean+/−SD (n=2-3 per time point). […] The experimental procedure is provided in Example 15.
Male non-naïve cynomolgus monkeys (Hainan Jingang Laboratory Animal Co. Ltd., China), at least 2 kg body weight, were individually housed during the study in stainless steel mesh cages, provided ad libitum access to RO water, fed twice daily (except on the day of dosing when they were fed once) with ˜60 g Certified Monkey Diet each feed (Beijing Vital Keao Feed Co., Ltd., Beijing, China) and given daily treats of fresh fruit. They (n=5) were administered a dose of Compound 2 (AT-752) at 300 mg/kg in 40% PEG400, 10% solutol HS15, 50% 100 mM citrate buffer, pH 4.5 (v/v) by oral gavage, and blood samples (˜0.5 mL) were collected at 1, 2, 4, 8, 12 and 24 h post dose. Plasma was separated at each time point for pharmacokinetics, and stored at −70° C. […]
Pharmacokinetic measurements for FIGS. 11, 12, 13, 14, and 15 were analyzed using LC-MS/MS according to the protocol described herein. […]

Data set [9] has as its target DENV4 MTase domain (Dengue virus type 4, UniProt P09866). Nature of the data set: Thermal shift assay, DENV4 MTase domain. Particulars: read-out: ΔTM.

Usually EC50 stands for the concentration at which the effect is half-maximal. A high value points to weaker potency. What is called ΔTm is the shift of the melting midpoint relative to a reference.

Sequence of DENV4 MTase domain (P09866 2489-2751): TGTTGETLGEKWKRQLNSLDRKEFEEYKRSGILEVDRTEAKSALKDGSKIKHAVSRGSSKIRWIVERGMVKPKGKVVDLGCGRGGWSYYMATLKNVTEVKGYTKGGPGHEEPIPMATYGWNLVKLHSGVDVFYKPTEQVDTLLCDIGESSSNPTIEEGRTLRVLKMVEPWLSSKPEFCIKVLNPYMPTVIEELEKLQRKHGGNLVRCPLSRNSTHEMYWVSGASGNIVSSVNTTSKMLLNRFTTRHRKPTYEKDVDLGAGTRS

Regarding `CNc1nc(N)nc2c1ncn2[C@@H]1O[C@H](CO[P@](=O)(N[C@@H](C)C(=O)OC(C)C)Oc2ccccc2)[C@@H](O)[C@@]1(C)F` [Compound 1, isopropyl ((R)-(((2R,3R,4R,5R)-5-(2-amino-6-(methylamino)-9H-purin-9-yl)-4-fluoro-3-hydroxy-4-methyltetrahydrofuran-2-yl)methoxy)(phenoxy)phosphoryl)-L-alaninate], the EC50 in data set [1] is greater than 100 µM; in data set [3] it was 0.3 µM. Also, the CC50 in data set [2] is greater than 85 µM; in data set [4], greater than 100 µM; in [5], greater than 170 µM. Also, the CC50 at 14 days in data set [6] is greater than 100 µM.
Regarding `C[C@@]1(F)[C@H](O)[C@@H](COP(=O)(O)OP(=O)(O)OP(=O)(O)O)O[C@H]1n1cnc2c(=O)[nH]c(N)nc21` [Compound 5], in data set [7] (DENV2, GTP for AT-9010 and AT-9002, UTP for SOF-TP), the “Preference (discrimination) native nucleotide > analogue” value is listed as 9.3 ± 0.1. Further, the “discrimination factor (preference for GTP>Compound 5)” value in data set [7] (DENV-2 NS5, all four NTPs, band product intensities) is given as 12.6±4.3. For the same compound, the “effect on RNA synthesis after incorporation” value in data set [7] (absence of GTP, next correct nucleotide (UTP) present) is “immediate chain-termination of RNA synthesis”. Further, in data set [8], the “concentration of AT-9010 in PBMCs” value is reported as 0.070±0.046 pmol/10^6 cells. Moreover, the ΔTm at 100 µM in data set [9] was determined as 2.9 ± 0.1 °C.
